Laboratory results as given in article PMC5590646 (Biochemistry, 2015).
Where two headings read alike, the source gives them in different places. Marks after values point to notes of the source that are not given here.

Tests used:
PR20 [1] = assay: DSC thermal stabilisation by inhibitor; assay type: binding, HIV-1; conditions: for ΔTm of PR20 smaller than that of PR20^PR-123: DSC, PR20 vs PR20^PR-123
[2] = molecular target: PR (pseudo-wild-type mature HIV-1 protease); conditions: cited from earlier work
PR20 [3] = conditions: read-out: inhibition constant Ki; cited from earlier work
PR = conditions: cited from earlier work
TFR-PR precursor = conditions: cited from earlier work; for IC50: read-out: IC50 for inhibition of autoprocessing
TFR-PR20 precursor = conditions: read-out: IC50 for inhibition of autoprocessing; cited from earlier work
PR20 [4] = conditions: darunavir; cited from earlier work

CC(C)(C)NC(=O)[C@@H]1C[C@@H]2CCCC[C@@H]2CN1C[C@@H](O)[C@H](Cc1ccccc1)NC(=O)[C@H](CC(N)=O)NC(=O)c1ccc2ccccc2n1 [saquinavir]
ΔTm of PR20 smaller than that of PR20^PR-123 (PR20 [1]): 9–11 °C
ΔTm (with inhibitor), DSC (PR20 [1]; PR20, saquinavir, 2fold molar excess of inhibitor over dimer, buffer A): 2.9 °C
Ki ([2]; read-out: inhibition constant Ki, saquinavir): 0.28 ± 0.02 nM
Ki (PR20 [3]): 930 ± 93 nM
ΔTm (with inhibitor), DSC (PR; saquinavir): 19.3 ^d °C
concentration that completely inhibits autoprocessing (TFR-PR precursor): 1 to 3 µM
IC50 (TFR-PR precursor): 1000 to 2000 nM
IC50 (TFR-PR20 precursor): > 150000 nM

CC(C)CN(C[C@@H](O)[C@H](Cc1ccccc1)NC(=O)O[C@H]1CO[C@H]2OCC[C@H]21)S(=O)(=O)c1ccc(N)cc1 [darunavir]
ΔTm of PR20 smaller than that of PR20^PR-123 (PR20 [1]): 9–11 °C
Ki ([2]; read-out: inhibition constant Ki, darunavir, ref refs and [50]): ≤ 0.01 nM
Ki (PR20 [3]): 41 ± 10 nM
ΔTm (with inhibitor), DSC (PR; darunavir): 22.4 ^c °C
ΔTm (with inhibitor), DSC (PR20 [4]): 5.3 ^b °C
concentration that completely inhibits autoprocessing (TFR-PR precursor): 1 to 3 µM
IC50 (TFR-PR precursor): 1000 to 2000 nM
